Assay results: patent US12371748B2, “Genetic markers for predicting responsiveness to therapy with HDL-raising or HDL mimicking agent” (Hoffmann-La Roche Inc., priority 2014, dated 2025)

System: patients recently hospitalized for an Acute Coronary Syndrome (ACS)
Test: dal-OUTCOMES pharmacogenomic study: cardiovascular events by ADCY9 genotype (Cox proportional hazards)
Type: in vivo, human
Design: key to Responsiveness to treatment: NR = non-responsive; PR = partially responsive; R = responsive
Details: for Hazard ratio (dal vs placebo): time to events; for HR, dal-OUTCOMES: per copy of minor allele
Procedure: Dal-OUTCOMES trial (NC20971) was a double blind, randomized, placebo-controlled, parallel group, multi-center, phase III study to assess the safety and efficacy of the CETP inhibitor dalcetrapib in patients recently hospitalized for an Acute Coronary Syndrome (ACS). At time of the interim analysis the study included 15871 randomized patients, distributed over two treatment arms: placebo (7933 patients) and dalcetrapib (600 mg daily; 7938 patients). […] The dal-OUTCOMES study details can be found in G. Schwartz et al., N. Engl. J. Med. 367; 22, 2012.
dal-Outcomes patients were recruited 4 to 12 weeks following hospitalization for acute coronary syndrome characterized by elevated cardiac biomarkers, with symptoms of acute myocardial ischemia, ischemic electrocardiographic abnormalities that were new or presumed to be new, or loss of viable myocardium on imaging. Patients without elevated cardiac biomarkers were eligible to participate if symptoms of acute myocardial ischemia were accompanied by electrocardiographic changes that were new or presumed to be new and by additional evidence of obstructive coronary disease. (Schwartz G G et al. Am Heart J 2009; 158:896-901 e3).
All patients were following individualized programs to target LDL cholesterol levels of 100 mg per deciliter (2.6 mmol per liter) or lower by statin if tolerated and diet. No specific statin agent was specified, and patients were not excluded based on LDL cholesterol values. Patients with serum triglyceride levels of 400 mg per deciliter (4.5 mmol per liter) or higher were excluded. (Schwartz G G et al. N Engl J Med 2012; 367:2089-99) Eligible participants to the dal-Outcomes trial entered a single-blind placebo run-in period of approximately 4 to 6 weeks to allow for patients to stabilise and for completion of planned revascularisation procedures. At the end of the run-in period, eligible patients in stable condition were randomised in a 1:1 ratio to 600 mg of dalcetrapib or placebo on top of evidence-based medical care for acute coronary syndrome. Cardiovascular events were adjudicated by an independent clinical endpoint committee. For the pharmacogenomics study, 6338 patients were recruited from April 2008 through July 2010 at 461 sites in 14 countries and provided written informed consent to participate to the genetic study of the dal-OUTCOMES trial. DNA was extracted from whole blood. Following genomic data cleanup, samples from 5749 Caucasian patients were used for the discovery genome-wide association study (GWAS).
The Illumina Infinium HumanOmni2.5Exome-8v1_A BeadChip including 2,567,845 genetic variants (Illumina, San Diego, California) was used for the discovery GWAS of 5749 Caucasian participants to the dal-OUTCOMES study. The chromosome 16 region including 5 genes upstream and downstream of the adenylate cyclase type 9 (ADCY9) gene (CHR16: 3,400,000-4,600,000) was imputed using IMPUTE2, providing 17,764 variants for analysis with an average completion rate of 99.76%. A Sequenom panel was used for the confirmation of imputed single nucleotide polymorphisms (SNPs) in the ADCY9 gene identified in dal-OUTCOMES and were tested in the dal-PLAQUE-2 study, including 20 SNPs with P values<0.05 from the discovery GWAS.
Genome-wide association study (GWAS)—Genome-wide genotyping was performed using 200 ng of genomic DNA in GLP-environment at the Beaulieu-Saucier Pharmacogenomics Centre (Montreal, Canada). The Illumina Infinium HumanOmni2.5Exome-8v1_A BeadChip (Illumina, San Diego, CA) including 2,567,845 genomic markers was used and processed according to the manufacturer's specifications. This chip includes over 200,000 exome variants identified through the Exome Chip Consortium. The remaining BeadChip content is a mix of rare and common SNPs from the 1000 Genome Project designed to be maximally informative for diverse world populations. Each BeadChip was scanned and analyzed using the Illumina iScan Reader. […]

CCC(CC)CC1(C(=O)Nc2ccccc2SC(=O)C(C)C)CCCCC1 [dalcetrapib, thioisobutyric acid S-(2-{[1-(2-ethyl-butyl)-cyclohexanecarbonyl]-amino}-phenyl) ester]
Responsiveness to treatment (rs8061182 CC): NR | Hazard ratio (dal vs placebo) (rs8061182 CC): 1.52 | Responsiveness to treatment (rs8061182 CT): PR | Hazard ratio (dal vs placebo) (rs8061182 CT): 0.99 | Responsiveness to treatment (rs8061182 TT): R | Hazard ratio (dal vs placebo) (rs8061182 TT): 0.815 | HR, dal-OUTCOMES (rs11647778, Cox additive genetic model): 0.678 | Responsiveness to treatment (rs11647778 CC): R | Hazard ratio (dal vs placebo) (rs11647778 CC): 0.691 | Responsiveness to treatment (rs11647778 CG): PR | Hazard ratio (dal vs placebo) (rs11647778 CG): 0.966 | Responsiveness to treatment (rs11647778 GG): NR | Hazard ratio (dal vs placebo) (rs11647778 GG): 1.300 | HR, dal-OUTCOMES (rs11647828, Cox additive genetic model): 0.696 | Responsiveness to treatment (rs11647828 CC): R | Hazard ratio (dal vs placebo) (rs11647828 CC): 0.647 | Responsiveness to treatment (rs11647828 CT): PR | Hazard ratio (dal vs placebo) (rs11647828 CT): 0.963 | Responsiveness to treatment (rs11647828 TT): NR | Hazard ratio (dal vs placebo) (rs11647828 TT): 1.315 | HR, dal-OUTCOMES (rs12595857, Cox additive genetic model): 0.677 | Responsiveness to treatment (rs12595857 AA): NR | Hazard ratio (dal vs placebo) (rs12595857 AA): 1.255 | Responsiveness to treatment (rs12595857 AG): PR | Hazard ratio (dal vs placebo) (rs12595857 AG): 0.954 | Responsiveness to treatment (rs12595857 GG): R | Hazard ratio (dal vs placebo) (rs12595857 GG): 0.719 | HR, dal-OUTCOMES (rs12599911, Cox additive genetic model): 0.674 | Responsiveness to treatment (rs12599911 GG): R | Hazard ratio (dal vs placebo) (rs12599911 GG): 0.672 | Responsiveness to treatment (rs12599911 GT): PR | Hazard ratio (dal vs placebo) (rs12599911 GT): 0.982 | Responsiveness to treatment (rs12599911 TT): NR | Hazard ratio (dal vs placebo) (rs12599911 TT): 1.244 | HR, dal-OUTCOMES (rs12920508, Cox additive genetic model): 0.669 | Responsiveness to treatment (rs12920508 CC): NR | Hazard ratio (dal vs placebo) (rs12920508 CC): 1.205 | Responsiveness to treatment (rs12920508 CG): PR | Hazard ratio (dal vs placebo) (rs12920508 CG): 0.946 | Responsiveness to treatment (rs12920508 GG): R | Hazard ratio (dal vs placebo) (rs12920508 GG): 0.676 | HR, dal-OUTCOMES (rs12935810, Cox additive genetic model): 1.377 | Responsiveness to treatment (rs12935810 AA): NR | Hazard ratio (dal vs placebo) (rs12935810 AA): 1.260 | Responsiveness to treatment (rs12935810 AG): NR | Hazard ratio (dal vs placebo) (rs12935810 AG): 1.043 | Responsiveness to treatment (rs12935810 GG): R | Hazard ratio (dal vs placebo) (rs12935810 GG): 0.796 | HR, dal-OUTCOMES (rs13337675, Cox additive genetic model): 0.834 | Responsiveness to treatment (rs13337675 AA): NR | Hazard ratio (dal vs placebo) (rs13337675 AA): 1.070 | Responsiveness to treatment (rs13337675 AG): PR | Hazard ratio (dal vs placebo) (rs13337675 AG): 0.904 | Responsiveness to treatment (rs13337675 GG): PR | Hazard ratio (dal vs placebo) (rs13337675 GG): 1.034 | HR, dal-OUTCOMES (rs17136707, Cox additive genetic model): 0.594 | Responsiveness to treatment (rs17136707 CC): R | Hazard ratio (dal vs placebo) (rs17136707 CC): 0.552 | Responsiveness to treatment (rs17136707 CT): PR | Hazard ratio (dal vs placebo) (rs17136707 CT): 0.835 | Responsiveness to treatment (rs17136707 TT): NR | Hazard ratio (dal vs placebo) (rs17136707 TT): 1.058 | HR, dal-OUTCOMES (rs74702385, Cox additive genetic model): 0.599 | Responsiveness to treatment (rs74702385 CC): NR | Hazard ratio (dal vs placebo) (rs74702385 CC): 1.053 | Responsiveness to treatment (rs74702385 CT): R | Hazard ratio (dal vs placebo) (rs74702385 CT): 0.854 | Responsiveness to treatment (rs74702385 TT): R | Hazard ratio (dal vs placebo) (rs74702385 TT): 0.348 | HR, dal-OUTCOMES (rs111590482, Cox additive genetic model): 0.606 | Responsiveness to treatment (rs111590482 CC): R | Hazard ratio (dal vs placebo) (rs111590482 CC): 0.333 | Responsiveness to treatment (rs111590482 CT): R | Hazard ratio (dal vs placebo) (rs111590482 CT): 0.856 | Responsiveness to treatment (rs111590482 TT): NR | Hazard ratio (dal vs placebo) (rs111590482 TT): 1.054 | event rate in the primary efficacy endpoint, dalcetrapib arm compared to placebo arm (whole study population, 600 mg daily, interim analysis): no evidence of reduction of the event rate | HR for cardiovascular events, AA compared to reference GG homozygotes at rs1967309 (within dalcetrapib arm): 0.40 | HR for cardiovascular events, AG compared to reference GG homozygotes at rs1967309 (within dalcetrapib arm): 0.68
